Experimental findings from patent US12065399B2, “Arylsulfonamide derivatives” (Hoffmann-La Roche Inc., priority 2019, dated 2024) are described below.

pEC50: −log10 of the molar value. Where a name gives a salt, the structure may show the parent alone.

Sequence of human mGlu4 receptor (Q14833 33-912): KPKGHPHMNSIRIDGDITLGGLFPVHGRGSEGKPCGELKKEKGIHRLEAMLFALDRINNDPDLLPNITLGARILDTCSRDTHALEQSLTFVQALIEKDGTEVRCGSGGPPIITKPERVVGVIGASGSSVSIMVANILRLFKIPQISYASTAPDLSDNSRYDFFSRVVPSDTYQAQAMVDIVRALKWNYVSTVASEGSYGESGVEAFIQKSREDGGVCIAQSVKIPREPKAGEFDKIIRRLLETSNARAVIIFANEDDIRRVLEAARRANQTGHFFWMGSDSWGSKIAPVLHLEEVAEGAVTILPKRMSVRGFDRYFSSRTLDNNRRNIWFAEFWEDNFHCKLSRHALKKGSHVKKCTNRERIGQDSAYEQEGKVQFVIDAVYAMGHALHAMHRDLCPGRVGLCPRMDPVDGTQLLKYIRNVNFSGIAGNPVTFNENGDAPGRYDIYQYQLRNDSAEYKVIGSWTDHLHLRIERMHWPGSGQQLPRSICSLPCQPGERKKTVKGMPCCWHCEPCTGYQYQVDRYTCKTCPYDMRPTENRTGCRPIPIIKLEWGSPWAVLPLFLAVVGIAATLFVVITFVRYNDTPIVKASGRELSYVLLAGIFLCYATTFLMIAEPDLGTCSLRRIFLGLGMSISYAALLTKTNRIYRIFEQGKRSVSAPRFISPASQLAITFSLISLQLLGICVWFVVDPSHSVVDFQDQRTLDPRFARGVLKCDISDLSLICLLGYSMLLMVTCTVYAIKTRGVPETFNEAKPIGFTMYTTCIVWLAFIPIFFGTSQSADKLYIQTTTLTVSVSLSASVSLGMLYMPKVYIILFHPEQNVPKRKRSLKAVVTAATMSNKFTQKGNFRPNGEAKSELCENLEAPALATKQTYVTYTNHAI

The assay concerns the target human mGlu4 receptor (Homo sapiens (Human), UniProt Q14833). Put plainly: Intracellular Ca2+ mobilization assay (FLIPR), mGlu4 NAM. In kind it is cell-based. Particulars: HEK-293 cells stably transfected with human mGlu4; inhibition of L-AP4 (EC80) response; IC50. The procedure:
2.1) Intracellular Ca^2+ Mobilization Assay (FLIPR)
A monoclonal HEK-293 cell line stably transfected with a cDNA encoding for the human mGlu4 receptor was generated. Cells were cultured according to standard protocols (Freshney, 2000) in Dulbecco's Modified Eagle Medium with high glucose supplemented with 1 mM glutamine, 10% (vol/vol) heat-inactivated bovine calf serum, penicillin/streptomycin, 50 μg/ml hygromycin and 15 μg/ml blasticidin (all cell culture reagents and antibiotics from Invitrogen, Basel, Switzerland).
About 24 hrs before an experiment, 5×10^4 cells/well were seeded in poly-D-lysine coated, black/clear-bottomed 96-well plates. The cells were loaded with 2.5 μM Fluo-4AM in loading buffer (1×HBSS, 20 mM HEPES) for 1 hr at 37° C. and washed five times with loading buffer. The cells were transferred into a Functional Drug Screening System 7000 (Hamamatsu, Paris, France), and 11 half logarithmic serial dilutions of test compound at 37° C. were added and the cells were incubated for 10-30 min. with on-line recording of fluorescence. Following this pre-incubation step, the agonist (2S)-2-amino-4-phosphonobutanoic acid (L-AP4) was added to the cells at a concentration corresponding to EC80 with on-line recording of fluorescence; in order to account for day-to-day variations in the responsiveness of cells, the EC80 of L-AP4 was determined immediately ahead of each experiment by recording of a full dose-response curve of L-AP4.
Responses were measured as peak increase in fluorescence minus basal (i.e. fluorescence without addition of L-AP4), normalized to the maximal stimulatory effect obtained with saturating concentrations of L-AP4. Graphs were plotted with the % maximal stimulatory using XLfit, a curve fitting program that iteratively plots the data using Levenburg Marquardt algorithm. The single site competition analysis equation used was y=A+((B-A)/(1+((x/C)D))), where y is the % maximal stimulatory effect, A is the minimum y, B is the maximum y, C is the IC50, x is the log 10 of the concentration of the competing compound and D is the slope of the curve (the Hill Coefficient). From these curves the IC50 (drug concentration at which 50% of the receptor activation achieved from the addition of L-AP4 in the experiment was inhibited), the Hill coefficient as well as the maximal response in % of the maximal stimulatory effect obtained with saturating concentrations of L-AP4 were calculated (see FIG. 1).
A general note: A change in cytosolic calcium serves as a functional read-out for many receptors and channels.
In turn, `COc1cccc(S(=O)(=O)Nc2c(F)cc(C#Cc3ccccc3)cc2F)c1Cl` [Example 27, 2-chloro-N-[2,6-difluoro-4-(2-phenylethynyl)phenyl]-3-methoxy-benzenesulfonamide] gave a pEC50 of 5.07.

`COc1cccc(C#Cc2cc(F)c(NS(=O)(=O)c3cccc(Cl)c3C)c(F)c2)c1` [Example 42, 3-chloro-N-[2,6-difluoro-4-[2-(3-methoxyphenyl)ethynyl]phenyl]-2-methyl-benzenesulfonamide] showed a negative-log EC50 (pEC50) of 5.88.

The molecule `Cc1ccncc1S(=O)(=O)Nc1c(F)cc(C#Cc2ccccc2)cc1F` [Example 31, N-[2,6-difluoro-4-(2-phenylethynyl)phenyl]-4-methyl-pyridine-3-sulfonamide] showed a pEC50 of 5.85. The pEC50 values of the last two molecules are within 0.2 log units of each other.

`O=S(=O)(Nc1c(F)cc(C#Cc2cncc(F)c2)cc1F)c1cccc(Cl)c1Cl` [Example 13, 2,3-dichloro-N-[2,6-difluoro-4-[2-(5-fluoro-3-pyridyl)ethynyl]phenyl]benzenesulfonamide] gave a pEC50 of 6.25.

`Cc1cc(F)c(C)c(S(=O)(=O)Nc2c(F)cc(C#Cc3cccc(F)c3)cc2F)c1` [Example 45, N-[2,6-difluoro-4-[2-(3-fluorophenyl)ethynyl]phenyl]-3-fluoro-2,5-dimethyl-benzenesulfonamide] had a pEC50 of 5.88. This pEC50 is 0.37 log units lower than that of the molecule before.

`O=S(=O)(Nc1c(F)cc(C#Cc2ccccc2)cc1F)c1cncc(Cl)c1` [Example 23, 5-chloro-N-[2,6-difluoro-4-(2-phenylethynyl)phenyl]pyridine-3-sulfonamide] had a pEC50 of 5.51.

Regarding `CC(C)(C)c1cnn(-c2cc(F)c(NS(=O)(=O)c3ccccc3Cl)c(F)c2)c1` [Example 58, N-[4-(4-tert-butylpyrazol-1-yl)-2,6-difluoro-phenyl]-2-chloro-benzenesulfonamide], the pEC50 was 4.88.

With `Cc1cc(F)c(C)c(S(=O)(=O)Nc2c(F)cc(C#Cc3cncc(F)c3)cc2F)c1` [Example 38, N-[2,6-difluoro-4-[2-(5-fluoro-3-pyridyl)ethynyl]phenyl]-3-fluoro-2,5-dimethyl-benzenesulfonamide; 2,2,2-trifluoroacetic acid salt], the pEC50 is 6.36.

Molecule `Cc1cc(F)c(C)c(S(=O)(=O)Nc2c(F)cc(C#Cc3cc(F)cc(F)c3)cc2F)c1` [Example 49, N-[4-[2-(3,5-difluorophenyl)ethynyl]-2,6-difluoro-phenyl]-3-fluoro-2,5-dimethyl-benzenesulfonamide] gave a negative logarithm of the EC50 (pEC50) of 6.04.

With `Cc1cccc(S(=O)(=O)Nc2c(F)cc(C#Cc3ccccc3)cc2F)c1Cl` [Example 16, 2-chloro-N-[2,6-difluoro-4-(2-phenylethynyl)phenyl]-3-methyl-benzenesulfonamide], the pEC50 is 5.81.

`Cc1ncccc1S(=O)(=O)Nc1c(F)cc(C#Cc2ccccc2)cc1F` [Example 29, N-[2,6-difluoro-4-(2-phenylethynyl)phenyl]-2-methyl-pyridine-3-sulfonamide] showed a negative-log EC50 (pEC50) of 5.54.

In turn, `O=S(=O)(Nc1c(F)cc(C#Cc2ccccc2)cc1F)c1cncc(F)c1` [Example 24, N-[2,6-difluoro-4-(2-phenylethynyl)phenyl]-5-fluoropyridine-3-sulfonamide] showed a negative-log EC50 (pEC50) of 5.69.

`O=S(=O)(Nc1c(F)cc(C#Cc2ccccc2)cc1F)c1ccccc1F` [Example 6, N-[2,6-difluoro-4-(2-phenylethynyl)phenyl]-2-fluoro-benzenesulfonamide] showed a negative logarithm of the EC50 (pEC50) of 5.33. This pEC50 lies 0.36 log units lower than the previous one.

In turn, `Cc1ccc(C)c(S(=O)(=O)Nc2c(F)cc(C#Cc3ccccc3)cc2F)c1` [Example 30, N-[2,6-difluoro-4-(2-phenylethynyl)phenyl]-2,5-dimethyl-benzenesulfonamide] gave a negative logarithm of the EC50 (pEC50) of 5.87.

On to `O=S(=O)(Nc1c(F)cc(C#Cc2ccccc2)cc1F)c1cccnc1Cl` [Example 22, 2-chloro-N-[2,6-difluoro-4-(2-phenylethynyl)phenyl]pyridine-3-sulfonamide], for which the negative logarithm of the EC50 (pEC50) was 5.36.

`O=S(=O)(Nc1c(F)cc(C#Cc2ccccc2)cc1F)c1ccccn1` [Example 10, N-[2,6-difluoro-4-(2-phenylethynyl)phenyl]pyridine-2-sulfonamide]: the pEC50 was 4.85. This pEC50 is 0.51 log units lower than that of the molecule before.

`Cc1c(Cl)cccc1S(=O)(=O)Nc1c(F)cc(C#Cc2ccccc2)cc1F` [Example 20, 3-chloro-N-[2,6-difluoro-4-(2-phenylethynyl)phenyl]-2-methyl-benzenesulfonamide] had a pEC50 of 5.97.

`Cc1ccc(Cl)c(S(=O)(=O)Nc2c(F)cc(C#Cc3ccccc3)cc2F)c1` [Example 19, 2-chloro-N-[2,6-difluoro-4-(2-phenylethynyl)phenyl]-5-methyl-benzenesulfonamide] showed a negative-log EC50 (pEC50) of 5.90.

As to `O=S(=O)(Nc1c(F)cc(C#Cc2ccccc2)cc1F)c1cccc(F)c1Cl` [Example 17, 2-chloro-N-[2,6-difluoro-4-(2-phenylethynyl)phenyl]-3-fluoro-benzenesulfonamide], the negative-log EC50 (pEC50) was 6.13.

The molecule `Cc1cc(Cl)c(C)c(S(=O)(=O)Nc2c(F)cc(C#Cc3cncc(F)c3)cc2F)c1` [Example 54, 3-chloro-N-(2,6-difluoro-4-((5-fluoropyridin-3-yl)ethynyl)phenyl)-2,5-dimethylbenzenesulfonamide 2,2,2-trifluoroacetate] gave a pEC50 of 6.04.

The molecule `O=S(=O)(Nc1c(F)cc(C#Cc2cncc(F)c2)cc1F)c1cccc(Cl)c1` [Example 14, 3-chloro-N-[2,6-difluoro-4-[2-(5-fluoro-3-pyridyl)ethynyl]phenyl]benzenesulfonamide] had a pEC50 of 5.98.

As for `O=S(=O)(Nc1c(F)cc(C#Cc2ccccc2)cc1F)c1cccc(Cl)c1C(F)(F)F` [Example 21, 3-chloro-N-[2,6-difluoro-4-(2-phenylethynyl)phenyl]-2-(trifluoromethyl)benzenesulfonamide], the pEC50 is 4.82.

Take `Cc1cc(F)c(C)c(S(=O)(=O)Nc2c(F)cc(C#Cc3ccccc3)cc2F)c1` [Example 40, N-[2,6-difluoro-4-(2-phenylethynyl)phenyl]-3-fluoro-2,5-dimethyl-benzenesulfonamide]: the negative logarithm of the EC50 (pEC50) is 6.09.

Consider `Cn1nccc1S(=O)(=O)Nc1c(F)cc(C#Cc2ccccc2)cc1F` [Example 25, N-[2,6-difluoro-4-(2-phenylethynyl)phenyl]-1-methyl-1H-pyrazole-5-sulfonamide], for which the pEC50 is 5.97.

For the molecule `Cc1c(C(F)(F)F)cccc1S(=O)(=O)Nc1c(F)cc(C#Cc2ccccc2)cc1F` [Example 28, N-[2,6-difluoro-4-(2-phenylethynyl)phenyl]-2-methyl-3-(trifluoromethyl)benzenesulfonamide], the negative logarithm of the EC50 (pEC50) is 5.71.

Turning to `Cc1cccc(S(=O)(=O)Nc2c(F)cc(C#Cc3ccccc3)cc2F)c1` [Example 36, N-[2,6-difluoro-4-(2-phenylethynyl)phenyl]-3-methyl-benzenesulfonamide], the pEC50 is 5.30.

Consider `COc1c(F)cccc1S(=O)(=O)Nc1c(F)cc(C#Cc2ccccc2)cc1F` [Example 46, N-[2,6-difluoro-4-(2-phenylethynyl)phenyl]-3-fluoro-2-methoxy-benzenesulfonamide], for which the negative-log EC50 (pEC50) is 5.68.

Usually pEC50 stands for the EC50 on a negative log10 scale, so that one unit is a factor of ten.
